Where two headings read alike, the source gives them in different places.
What was measured:
[1] = test system: Fusarium oxysporum; test: Antimicrobial activity against pathogens (MIC80 / MBC100); format: cell-based; details: concentration necessary to kill 100%
Excerpt: (§1) A comparison of antimicrobial activity for these two naturally occurring peptides against various pathogens (combined fungal and bacterial) is summarized below

[2] = test system: Erwinia stewartii; test: as above; format: cell-based; details: concentration necessary to kill 100%
Excerpt: as §1

[3] = test system: Aspergillus fumigatus; test: as above; format: cell-based; details: concentration necessary to kill 100%
Excerpt: as §1

[4] = test system: Aspergillus flavus; test: as above; format: cell-based
Excerpt: as §1

[5] = test system: Fusarium moniliforme; test: as above; format: cell-based
Excerpt: as §1

[6] = test system: Xanthomonas campestris; test: as above; format: cell-based
Excerpt: as §1

[7] = test system: pathogens of cotton, poplar and pome fruits such as pears and apples; details: tested by a number of labs throughout the world; cited from earlier work
[8] = test system: red blood cells (erythrocytes); test: Hemolytic activity of the peptides (hemoglobin release, absorbance at 412 nm); format: cell-based
Method: Hemolysis as defined herein is an in vitro assay where the compounds tendency to lyse red blood cells is determined. Presumably, the compounds that are less hemolytic will be less toxic in vivo. Increasing amounts of compound are added to solutions containing red blood cells and left for a specified time and then lysis is determined spectrophotometrically by measuring hemoglobin release.
A small volume of a suspension of erythrocytes (about 100 million) is kept on ice with a specific amount of lytic peptide. The cells are then placed in a 37° C. water bath for 10 min, vortexed and centrifuged at 1000 g for 2 min. The supernatant was removed and the amount of hemoglobin that was released was determined by the samples' absorbance at 412 nm. Control values without added peptide were subtracted from the absorbance readings.
The numerical difference between the value of the mean of hemolysis and the mean of the activity is a useful way to determine those peptides having the most desired activity.

[9] = test system: bacteria; test: Antibacterial activity of the peptides, broth microdilution MIC, mean activity (Table II); format: cell-based; details: overnight incubation (18 to 24 h)
Method: (§2) Minimum Inhibitory Concentration or MIC for the purpose of this invention is the lowest concentration of an antimicrobial that will inhibit the visible growth of a microorganism after overnight incubation. Minimum inhibitory concentrations are important in diagnostic laboratories to confirm resistance of microorganisms to an antimicrobial agent and also to monitor the activity of new antimicrobial agents. A MIC is generally regarded as the most basic laboratory measurement of the activity of an antimicrobial agent against an organism. MBC is defined as the lowest concentration of an antimicrobial agent needed to kill 99.9% of the initial organism inoculum. Presently, specific guidelines for interpretation are not available; therefore, a clinician knowledgeable in both bactericidal testing and infectious diseases should be available to interpret the results.
(§3) MICs were determined by the broth microdilution method described by the National Committee for Clinical Laboratory Standards (17). Serial twofold dilutions of each peptide solution were prepared (final volume, […]) in microtiter trays with appropriate medium. Each dilution series included control wells containing bacteria without peptide. A total of […] of the adjusted inoculum (100,000 organisms) was added to each well, and then the trays were incubated at
(§4) in ambient air overnight (18 to 24 h). The MIC of each peptide for each isolate was read as the lowest concentration of peptide that inhibited visible growth of the organism.
The above in vitro tests and analyses were conducted on a set of designed peptides of the present invention; and, for comparative purposes, naturally derived molecules.

[10] = test system: Sinorhizobium; test: MIC by broth microdilution; format: cell-based; parameters: unit not given here
Method: as §2, §3, §4

[11] = test system: Xanthomonas; test: MIC by broth microdilution; format: cell-based; parameters: unit not given here
Method: as §2, §3, §4

[12] = test system: agrobacterium; test: MIC by broth microdilution; format: cell-based; parameters: unit not given here
Method: as §2, §3, §4

[13] = test system: agrobacterium, Sinorhizobium, Xanthomonas; test: MIC by broth microdilution, mean over B1-B3; format: cell-based; details: mean of MIC for B1, B2, B3
Method: as §2, §3, §4

[14] = test system: angiogenesis; details: known activity, seen as a safety problem for humans; cited from earlier work
[15] = concentration necessary to kill 100%
[16] = concentration of TP necessary to limit growth by 80%

| Sequence | MIC for B2 [10] | MIC for B3 [11] | MIC for B1 [12] | Mean [13] | also measured |
| --- | --- | --- | --- | --- | --- |
| FKLRAKIKVRLRAKIKL [D4E1, D4E1 (AgroMed), earlier synthetic lytic peptide tested by a number of labs] | – | – | – | – | D4E1 MBC100 [1]: 3 µM; D4E1 MBC100 [2]: 1 µM; D4E1 MBC100 [3]: 12 µM; D4E1 MBC100 ([4]; concentration of D4E1 necessary to kill 100% of the pathogens): 12 µM; D4E1 MBC100 [5, 15]: 3 µM; D4E1 MBC100 [6, 15]: 2 µM; efficacy in limiting plant pathogens [7]: efficacious in limiting pathogens of cotton, poplar and pome fruits; Mean of Hemolysis [8]: 3.6 µM; Mean Activity [9]: 0.77 µM |
| KAFKKAFKKFKKACFKGLCAKKFKKFAKKFAK [AGM 183] | 0.3 | 1 | 3 | 1.44 | – |
| KARLKFCFKGLCIKIKVR [AGM 181] | 0.3 | 1 | 1 | 0.77 | – |
| KFAKKFKKFAKKFCFKGLCAFKKAFKKFKKAF [AGM 184] | 0.3 | 1 | 1 | 0.77 | – |
| KIKARLCLGKFCIKARLK [AGM 182] | 0.3 | 1 | 1 | 0.77 | – |
| KWCFRVCYRGICYRRCR [TP, defensin-like peptide found in the hemolymph of the horseshoe crab] | – | – | – | – | TP MIC80 [4, 16]: 34 µM; TP MIC80 [5, 16]: 21 µM; TP MIC80 [6, 16]: 0.77 µM; Mean of Hemolysis ([8]; erythrocytes, 37° C. for 10 min): 3 µM; Mean Activity [9]: 0.3 µM |
| RRRPRPPYLPRPRPPPFFPPRLPPRIPPGFPPRFPPRFP [PR39, antimicrobial peptide found in swine] | – | – | – | – | activities in mammals [14]: stimulation of angiogenesis |

From US9163066B2, “Antimicrobial lytic peptides” (priority 2010, dated 2015)
